Measured values from ChEMBL document CHEMBL5537148, “Discovery of (quinazolin-6-yl)benzamide derivatives containing a 6,7-dimethoxy-1,2,3,4-tetrahydroisoquinoline moiety as potent reversal agents against P-glycoprotein-mediated multidrug resistance” (Eur J Med Chem, 2024).
Active and inactive are the calls of the source. The rule behind the calls is not given here.

What was measured:
[1] = Reversal fold, ratio of adriamycin IC50 to adriamycin IC50 in presence of 0.1 uM test compound for reversal of adriamycin-mediated resistance in human MCF7/ADM cells by MTT method; assay type: functional
[2] = molecular target: ATP-dependent translocase ABCB1 (Homo sapiens, UniProt P08183); test: Inhibition of P-gp-mediated rhodamine-123 efflux in human MCF7/ADM cells assessed as increase in fluorescence intensity at 0.1 uM incubated for 6 hrs followed by Rh123 addition for 3 hrs by Fluorescence microplate reader analysis; assay type: cell-based; details: 9 h
MCF7/ADM [3] = test: Effect on P-gp expression in human MCF7/ADM cells at 0.1 uM by Western blot analysis; assay type: functional, cell-based
MCF7/ADM [4] = test: Induction of apoptosis in human MCF7/ADM cells incubated for 48 hrs in presence of adriamycin by Annexin V-FITC/PI staining based flow cytometric analysis; assay type: functional, cell-based; details: dose 0.1-1 µM
MCF7/ADM [5] = test: Inhibition of colony formation in human MCF7/ADM cells at 0.1 uM incubated for 15 days with fresh media replacement for every 2 days in the presence of adriamycin by crystal violet staining based imaging analysis; assay type: functional, cell-based; details: time 15.0 day
MCF7/ADM [6] = test: Inhibition of cell migration in human MCF7/ADM cells at 0.1 uM incubated for 24 to 48 hrs in the presence of adriamycin by Wound healing assay; assay type: functional, cell-based; details: time 24-48 hrs
MCF7/ADM [7] = test: Inhibition of cell invasion in human MCF7/ADM cells at 0.1 uM incubated for 24 hrs in the presence of adriamycin by Transwell assay; assay type: functional, cell-based
MCF7/ADM [8] = test: Antitumor activity against human MCF7/ADM cells xenografted in BABL/c mouse assessed as decrease in tumor volume at 2 mg/kg, ip administered once every 3 days for 25 days in the presence of adriamycin; assay type: functional, organism-based; details: time 25.0 day
MCF7/ADM [9] = test: Antitumor activity against human MCF7/ADM cells xenografted in BABL/c mouse assessed as decrease in tumor weight at 2 mg/kg, ip administered once every 3 days for 25 days in the presence of adriamycin; assay type: functional, organism-based; details: time 25.0 day
[10] = Antitumor activity against human MCF7/ADM cells xenografted in BABL/c mouse assessed as tumor growth inhibition at 2 mg/kg, ip administered once every 3 days for 25 days in the presence of adriamycin relative to control; assay type: functional; details: 600 h, time 25 day, read-out: TGI
MCF7/ADM [11] = test: Antitumor activity against human MCF7/ADM cells xenografted in BABL/c mouse assessed as increase in tumor degeneration at 2 mg/kg, ip administered once every 3 days for 25 days in the presence of adriamycin by H&E staining based analysis; assay type: functional, organism-based; details: time 25.0 day
MCF7/ADM [12] = test: Antitumor activity against human MCF7/ADM cells xenografted BABL/c mouse model assessed as increase in tumor necrosis at 2 mg/kg, ip administered once every 3 days for 25 days in the presence of adriamycin by H&E staining based analysis; assay type: functional, organism-based; details: time 25.0 day
[13] = Toxicity in Balb/c mouse xenografted with human MCF7/ADR cells assessed as liver cell necrosis at 2 mg/kg, ip administered once every 3 days for 25 days in presence of adriamycin by H&E staining based analysis; assay type: organism-based, NCI/ADR-RES; details: in vivo, 600 h, time 25 day
[14] = Toxicity in Balb/c mouse xenografted with human MCF7/ADR cells assessed as kidney cell necrosis at 2 mg/kg, ip administered once every 3 days for 25 days in presence of adriamycin by H&E staining based analysis; assay type: organism-based, NCI/ADR-RES; details: in vivo, 600 h, time 25 day
[15] = Toxicity in Balb/c mouse xenografted with human MCF7/ADR cells assessed as liver cell necrosis at 10 mg/kg, ip administered once every 3 days for 25 days by H&E staining based analysis; assay type: organism-based, NCI/ADR-RES; details: in vivo, 600 h, time 25 day
[16] = Toxicity in Balb/c mouse xenografted with human MCF7/ADR cells assessed as kidney cell necrosis at 10 mg/kg, ip administered once every 3 days for 25 days by H&E staining based analysis; assay type: organism-based, NCI/ADR-RES; details: in vivo, 600 h, time 25 day

Chain of ATP-dependent translocase ABCB1 (P08183 whole entry): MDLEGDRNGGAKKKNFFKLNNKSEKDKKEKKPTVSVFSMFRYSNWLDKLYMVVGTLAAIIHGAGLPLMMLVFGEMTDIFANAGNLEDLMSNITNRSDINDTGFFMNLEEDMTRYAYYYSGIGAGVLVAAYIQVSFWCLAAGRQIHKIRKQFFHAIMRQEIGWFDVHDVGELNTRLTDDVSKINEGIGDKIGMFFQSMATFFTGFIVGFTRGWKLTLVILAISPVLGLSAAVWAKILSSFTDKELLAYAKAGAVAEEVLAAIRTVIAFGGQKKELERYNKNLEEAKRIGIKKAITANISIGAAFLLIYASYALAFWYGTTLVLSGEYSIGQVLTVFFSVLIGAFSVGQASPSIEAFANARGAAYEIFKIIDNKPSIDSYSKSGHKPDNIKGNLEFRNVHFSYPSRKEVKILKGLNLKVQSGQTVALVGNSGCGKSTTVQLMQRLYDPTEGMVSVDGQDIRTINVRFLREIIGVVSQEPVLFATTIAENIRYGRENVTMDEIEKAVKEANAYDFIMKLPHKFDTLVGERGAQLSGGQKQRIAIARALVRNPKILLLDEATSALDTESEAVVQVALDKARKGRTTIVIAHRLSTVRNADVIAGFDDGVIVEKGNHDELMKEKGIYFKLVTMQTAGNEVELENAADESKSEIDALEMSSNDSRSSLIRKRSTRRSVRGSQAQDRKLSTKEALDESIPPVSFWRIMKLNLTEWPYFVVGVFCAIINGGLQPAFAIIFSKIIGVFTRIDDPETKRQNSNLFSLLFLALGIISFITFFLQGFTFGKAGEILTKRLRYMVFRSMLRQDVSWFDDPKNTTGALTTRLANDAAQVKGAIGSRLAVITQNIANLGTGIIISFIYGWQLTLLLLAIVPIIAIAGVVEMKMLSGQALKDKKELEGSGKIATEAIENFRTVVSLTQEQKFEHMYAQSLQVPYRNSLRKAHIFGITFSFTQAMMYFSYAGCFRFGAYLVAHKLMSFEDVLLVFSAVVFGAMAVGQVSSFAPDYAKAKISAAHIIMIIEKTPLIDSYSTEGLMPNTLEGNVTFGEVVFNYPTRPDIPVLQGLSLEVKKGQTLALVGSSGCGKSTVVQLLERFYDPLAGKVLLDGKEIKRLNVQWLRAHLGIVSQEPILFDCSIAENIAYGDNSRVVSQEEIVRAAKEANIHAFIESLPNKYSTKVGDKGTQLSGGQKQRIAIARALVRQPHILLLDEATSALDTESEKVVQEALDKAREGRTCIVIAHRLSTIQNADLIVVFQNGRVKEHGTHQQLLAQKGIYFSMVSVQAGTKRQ

Structure (SMILES) | Ratio IC50 [1] | further results
COc1cccc(Nc2ncnc3ccc(-c4ccc(C(=O)NCCN5CCc6cc(OC)c(OC)cc6C5)cc4)cc23)c1 | 1.3 | –
COc1cc2c(cc1OC)CN(CCNC(=O)c1ccc(-c3ccc4ncnc(Nc5ccc(Cl)cc5)c4c3)cc1)CC2 | 4.3 | –
COc1cc2c(cc1OC)CN(CCNC(=O)c1ccc(-c3ccc4ncnc(Nc5ccc(F)cc5)c4c3)cc1)CC2 | 14.1 | –
COC(=O)c1cccc(Nc2ncnc3ccc(-c4ccc(C(=O)NCCN5CCc6cc(OC)c(OC)cc6C5)cc4)cc23)c1 | 2.4 | –
COc1cc2c(cc1OC)CN(CCNC(=O)c1ccc(-c3ccc4ncnc(NCc5ccc(F)cc5)c4c3)cc1)CC2 | 12.1 | –
COc1cc2c(cc1OC)CN(CCNC(=O)c1ccc(-c3ccc4ncnc(NCc5cccc(F)c5)c4c3)cc1)CC2 | 22.2 | –
COc1ccccc1Nc1ncnc2ccc(-c3ccc(C(=O)NCCN4CCc5cc(OC)c(OC)cc5C4)cc3)cc12 | 83.4 | inhibition (INH) [2]: Active; Activity (MCF7/ADM [3]): inactive; Activity (MCF7/ADM [4]): Dose-Dependent Effect; inhibition (MCF7/ADM [5]): Active; inhibition (MCF7/ADM [6]): Active; inhibition (MCF7/ADM [7]): Active; Activity (MCF7/ADM [8]): Active; Activity (MCF7/ADM [9]): Active; inhibition in vivo at 2 mg/kg [10]: 69.7%; Activity (MCF7/ADM [11]): Active; Activity (MCF7/ADM [12]): Active; Activity [13]: Non-Toxic; Activity [14]: Non-Toxic
COc1cc2c(cc1OC)CN(CCc1ccc(NC(=O)c3cc(OC)c(OC)cc3NC(=O)c3cnc4ccccc4c3)cc1)CC2 [TARIQUIDAR] | 11 | inhibition (INH) [2]: Active; inhibition (MCF7/ADM [6]): Active; inhibition (MCF7/ADM [7]): Active; Activity (MCF7/ADM [8]): Active; Activity (MCF7/ADM [9]): Active; inhibition in vivo at 2 mg/kg [10]: 49.4%; Activity [13]: Non-Toxic; Activity [14]: Non-Toxic
COc1cc2c(cc1OC)CN(CCNC(=O)c1ccc(-c3ccc4ncnc(Nc5ccccc5C)c4c3)cc1)CC2 | 41.3 | –
COc1cc2c(cc1OC)CN(CCNC(=O)c1ccc(-c3ccc4ncnc(NCc5cccc(Cl)c5)c4c3)cc1)CC2 | 1.5 | –
COC(=O)c1ccc(Nc2ncnc3ccc(-c4ccc(C(=O)NCCN5CCc6cc(OC)c(OC)cc6C5)cc4)cc23)cc1 | 10.1 | –
COc1cc2c(cc1OC)CN(CCNC(=O)c1ccc(-c3ccc4ncnc(Nc5ccccc5Br)c4c3)cc1)CC2 | 16.6 | –
COc1cc2c(cc1OC)CN(CCNC(=O)c1ccc(-c3ccc4ncnc(Nc5ccccc5F)c4c3)cc1)CC2 | 2.4 | –
COc1cc2c(cc1OC)CN(CCNC(=O)c1ccc(-c3ccc4ncnc(Nc5ccccc5)c4c3)cc1)CC2 | 3.5 | –
COc1cc2c(cc1OC)CN(CCNC(=O)c1ccc(-c3ccc4ncnc(Nc5cccc(Cl)c5)c4c3)cc1)CC2 | 11.6 | –
COc1cc2c(cc1OC)CN(CCNC(=O)c1ccc(-c3ccc4ncnc(Nc5ccc(C)cc5)c4c3)cc1)CC2 | 3.1 | –
COc1cc2c(cc1OC)CN(CCNC(=O)c1ccc(-c3ccc4ncnc(NCc5ccccc5)c4c3)cc1)CC2 | 3.3 | –
COc1cccc2c1C(=O)c1c(O)c3c(c(O)c1C2=O)C[C@@](O)(C(=O)CO)C[C@@H]3O[C@H]1C[C@H](N)[C@H](O)[C@H](C)O1.Cl [DOXORUBICIN HYDROCHLORIDE] | – | Activity [15]: Non-Toxic; Activity [16]: Non-Toxic
COc1cc2c(cc1OC)CN(CCNC(=O)c1ccc(-c3ccc4ncnc(NCc5cccc(Br)c5)c4c3)cc1)CC2 | 1.2 | –
COc1cc2c(cc1OC)CN(CCNC(=O)c1ccc(-c3ccc4ncnc(Nc5cccc(C#N)c5)c4c3)cc1)CC2 | 2.5 | –
COc1cc2c(cc1OC)CN(CCNC(=O)c1ccc(-c3ccc4ncnc(Nc5ccc(Br)cc5)c4c3)cc1)CC2 | 16.3 | –
COc1ccc(Nc2ncnc3ccc(-c4ccc(C(=O)NCCN5CCc6cc(OC)c(OC)cc6C5)cc4)cc23)cc1F | 25.2 | –
COc1cc2c(cc1OC)CN(CCNC(=O)c1ccc(-c3ccc4ncnc(NCc5ccc(Cl)cc5)c4c3)cc1)CC2 | 9.3 | –
COc1cc2c(cc1OC)CN(CCNC(=O)c1ccc(-c3ccc4ncnc(NCc5ccccc5F)c4c3)cc1)CC2 | 7.2 | –
COc1cc2c(cc1OC)CN(CCNC(=O)c1ccc(-c3ccc4ncnc(Nc5ccccc5Cl)c4c3)cc1)CC2 | 13.3 | –
COc1cc2c(cc1OC)CN(CCNC(=O)c1ccc(-c3ccc4ncnc(Nc5cccc(Br)c5)c4c3)cc1)CC2 | 3.4 | –
COc1cc2c(cc1OC)CN(CCNC(=O)c1ccc(-c3ccc4ncnc(Nc5cccc(F)c5)c4c3)cc1)CC2 | 5.3 | –
COc1cc2c(cc1OC)CN(CCNC(=O)c1ccc(-c3ccc4ncnc(Nc5cccc(C)c5)c4c3)cc1)CC2 | 24.3 | –
